{"source": "patent US20080039320A1", "about": "(priority 2004, published 2008)", "key": {"[1]": {"test_system": "Puccinia recondita", "test": "6 day protective activity against brown rust of wheat, foliar spray (Use Example 4)", "type": "in vivo", "details": "wheat seedlings", "method": "(§1) The active compounds were prepared separately as a stock solution with 0.25% by weight of active compound in acetone or DMSO. 1% by weight of the emulsifier Uniperol® EL (wetting agent having emulsifying and dispersing action based on ethoxylated alkylphenols) was added to this solution, and the mixture was diluted with water to the desired concentration.\n(§2) The visually determined percentages of infected leaf areas were converted into efficacies in % of the untreated control:\n(§3) The efficacy (E) is calculated as follows using Abbot's formula: E=(1−α/β)·100 α corresponds to the fungicidal infection of the treated plants in % and β corresponds to the fungicidal infection of the untreated (control) plants in % An efficacy of 0 means that the infection level of the treated plants corresponds to that of the untreated control plants; an efficacy of 100 means that the treated plants were not infected.\n(§4) The expected efficacies of active compound combinations were determined using Colby's formula (Colby, S. R. “Calculating synergistic and antagonistic responses of herbicide combinations”, Weeds, 15, 20-22, 1967) and compared with the observed efficacies.\n(§5) Colby's formula: E=x+y−x·y/100\n6 Day Protective Activity Against Puccinia recondita on Wheat (Brown Rust of Wheat) Leaves of potted wheat seedlings of the cultivar “Kanzler” were sprayed to runoff point with an aqueous suspension having the concentration of active compound stated below. After six days, the treated plants were inoculated with a spore suspension of brown rust of wheat (Puccinia recondite). The plants were then placed in a chamber of high atmospheric humidity (90 to 95%) at 20 to 22° C. for 24 hours. During this time, the spores germinated and the germ tubes penetrated into the leaf tissue. The next day, the test plants were returned to the greenhouse and cultivated at temperatures between 20 and 22° C. and at 65 to 70% relative atmospheric humidity for a further 7 days. The extent of the rust fungus development on the leaves was then determined visually."}, "[2]": {"test_system": "Puccinia recondita", "test": "Protective activity against brown rust of wheat, menadione watered in, partner sprayed 6 days later (Use Example 2)", "type": "in vivo", "details": "wheat seedlings", "method": "as §1, §2, §3, §4\nColby's formula: E=x+y−x·y/100 […]"}, "[3]": {"test_system": "Phytophthora infestans", "type": "in vivo", "details": "tomato plants"}, "[4]": {"test_system": "Pyrenophora teres", "test": "Activity against net blotch of barley, 6 day protective application (Use Example 3)", "type": "in vivo, Pyrenophora [syn. Drechslera] teres", "details": "barley seedlings", "method": "as §1, §2, §3, §4, §5\nActivity Against Net Blotch of Barley Caused by Pyrenophora teres, 6 Day Protective Application Leaves of potted barley seedlings were sprayed to runoff point with an aqueous suspension having the concentration of active compound stated below. After 6 days, the test plants were inoculated with an aqueous spore suspension of Pyrenophora [syn. Drechslera] teres, the net blotch pathogen. The test plants were then placed in a greenhouse at temperatures between 20 and 24° C. and 95 to 100% relative atmospheric humidity. After 6 days, the extent of the development of the disease was determined visually in % infection of the total leaf area."}, "[5]": {"test_system": "phytopathogenic fungi", "test": "Fungicidal tests, overall statements", "type": "in vivo", "details": "menadione on its own", "method": "as §1, §2\nThe efficacy (E) is calculated as follows using Abbot's formula: E=(1−α/β)·100\nas §4, §5"}, "[6]": {"test_system": "Erysiphe [syn. Blumeria] graminis forma specialis. tritici", "test": "Activity against mildew of wheat, 6 day protective application (Use Example 6)", "type": "in vivo", "details": "wheat seedlings", "method": "as §1, §2, §3, §4, §5\nActivity Against Mildew of Wheat Caused by Erysiphe [syn. Blumeria] graminis Forma Specialis. Tritici, 6 Day Protective Application Leaves of potted wheat seedlings of the cultivar “Kanzler” were sprayed to runoff point with an aqueous suspension having the concentration of active compound stated below. The suspension or emulsion had been prepared as described above. 6 days after the application of the active compound, the plants were dusted with spores of mildew of wheat (Erysiphe [syn. Blumeria] graminis forma specialis. tritici). The test plants were then placed in a greenhouse at temperatures between 20 and 24° C. and at 60 to 90% relative atmospheric humidity. After 7 days, the extent of the mildew development was determined visually in % infection of the total leaf area."}, "[7]": {"test_system": "Pyricularia oryzae", "type": "in vivo", "details": "rice seedlings"}}, "note": "Read-outs that look alike come from different tables or passages of the source.", "data": [{"molecule": "Fc1ccc([C@]2(Cn3cncn3)O[C@H]2c2ccccc2Cl)cc1", "note": "(racemic) [epoxiconazole, (2RS,3SR)-1-[3-(2-chlorophenyl)-2,3-epoxy-2-(4-fluorophenyl)propyl]-1H-1,2,4-triazole]", "values": [{"measurement": "Observed effect (%)", "setting": "[1]; 1 ppm", "result": 22, "unit": "%"}]}, {"molecule": "O=C(Nc1ccccc1-c1ccc(Cl)cc1)c1cccnc1Cl", "note": "[boscalid, 2-chloro-N-(4′-chlorobiphenyl-2-yl)nicotinamide]", "values": [{"measurement": "Observed effect (%)", "setting": "[1]; 63 ppm", "result": 22, "unit": "%"}]}, {"molecule": "CC1CCN(c2c(-c3c(F)cc(F)cc3F)c(Cl)nc3ncnn23)CC1", "note": "[compound A, 5-Chloro-7-(4-methylpiperidin-1-yl)-6-(2,4,6-trifluorophenyl)-[1,2,4]triazolo[1,5-a]pyrimidine]", "values": [{"measurement": "Observed effect (%)", "setting": "[1]; 63 ppm", "result": 22, "unit": "%"}, {"measurement": "Observed effect (%)", "setting": "[2]; 4 ppm, sprayed to runoff", "result": 25, "unit": "%"}]}, {"molecule": "COc1ccc(C(=CC(=O)N2CCOCC2)c2ccc(Cl)cc2)cc1OC", "note": "[dimethomorph, 3-(4-chlorophenyl)-3-(3,4-dimethoxyphenyl)-1-morpholin-4-ylpropenone]", "values": [{"measurement": "Observed effect (%)", "setting": "[3]; 16 ppm", "result": 37, "unit": "%"}]}, {"molecule": "CC(C)NC(=O)N1CC(=O)N(c2cc(Cl)cc(Cl)c2)C1=O", "note": "[iprodione, N-isopropyl-3-(3,5-dichlorophenyl)-2,4-dioxoimidazolidine-1-carboxamide]", "values": [{"measurement": "Observed effect (%)", "setting": "[4]; 250 ppm", "result": 22, "unit": "%"}]}, {"molecule": "CC1=CC(=O)c2ccccc2C1=O", "note": "[menadione, 2-methyl-1,4-naphthoquinone]", "values": [{"measurement": "Observed effect (%)", "setting": "[4]; 16 ppm", "result": 0, "unit": "%"}, {"measurement": "Observed effect (%)", "setting": "[4]; 63 ppm", "result": 0, "unit": "%"}, {"measurement": "fungicidal action against phytopathogenic fungi", "setting": "[5]", "result": "no fungicidal action"}, {"measurement": "Observed effect (%)", "setting": "[1]; 1 ppm", "result": 0, "unit": "%"}, {"measurement": "Observed effect (%)", "setting": "[1]; 16 ppm", "result": 25, "unit": "%"}, {"measurement": "Observed effect (%)", "setting": "[6]; 16 ppm", "result": 0, "unit": "%"}, {"measurement": "Observed effect (%)", "setting": "[2]; 3.6%, watered with 2 ml aqueous suspension comprising 71 mg", "result": 0, "unit": "%"}, {"measurement": "Observed effect (%)", "setting": "[3]; 63 ppm", "result": 27, "unit": "%"}, {"measurement": "Observed effect (%)", "setting": "[7]; 250 ppm, efficacy in % of untreated control (Abbot)", "result": 0, "unit": "%"}]}, {"molecule": "COc1cc(C)c(C(=O)c2c(OC)ccc(Br)c2C)c(OC)c1OC", "note": "[metrafenone, 3′-bromo-2,3,4,6′-tetramethoxy-2′,6-dimethylbenzophenone]", "values": [{"measurement": "Observed effect (%)", "setting": "[6]; 63 ppm", "result": 67, "unit": "%"}]}, {"molecule": "COC(=O)N(OC)c1ccccc1COc1ccn(-c2ccc(Cl)cc2)n1", "note": "[pyraclostrobin, methyl N-{2-[1-(4-chlorophenyl)-1H-pyrazol-3-yloxymethyl]phenyl}(N-methoxy)carbamate]", "values": [{"measurement": "Observed effect (%)", "setting": "[7]; 1 ppm, applied 1 day before inoculation", "result": 20, "unit": "%"}]}, {"molecule": "zinc ammoniate ethylenebis(dithiocarbamate) [metiram]", "values": [{"measurement": "Observed effect (%)", "setting": "[6]; 63 ppm", "result": 0, "unit": "%"}]}]}
